In brackets after ≈: the same amount, converted by molar mass. Activity calls are given as the source filed them. The calls are words filed in the database; no cut-off is given here.
What was measured:
[1] = system: Venturia inaequalis; test: Antifungal activity against Venturia inaequalis; format: functional
[2] = system: Bipolaris oryzae; test: Antifungal activity against Cochliobolus miyabeanus; format: functional
[3] = system: Monilinia mali (Monilinia mali); test: Antifungal activity against Monilinia mali
[4] = system: Mycobacterium tuberculosis; test: Antibacterial activity against Mycobacterium tuberculosis H37Ra by Green fluorescent protein microplate assay; format: functional
[5] = system: Plasmodium falciparum; test: Antimalarial activity against Plasmodium falciparum K1; format: functional, organism-based
[6] = system: Candida albicans; test: Antifungal activity against Candida albicans; format: functional, organism-based
[7] = system: Pyricularia grisea; test: Antifungal activity against Magnaporthe grisea; format: functional, organism-based
[8] = system: KB; test: Cytotoxicity against human KB cells by resazurin microplate assay; format: functional, cell-based
[9] = system: MCF7; test: Cytotoxicity against human MCF7 cells at 88 uM by resazurin microplate assay; format: functional, cell-based
[10] = system: NCI-H187; test: Cytotoxicity against human NCI-H187 cells at 88 uM by resazurin microplate assay; format: functional, cell-based
[11] = system: Vero; test: Cytotoxicity against african green monkey Vero cells at 88 uM by Green fluorescent protein microplate assay; format: cell-based; conditions: chlorocebus sabaeus
[12] = system: KB; test: Cytotoxicity against human KB cells at 178 uM by resazurin microplate assay; format: functional, cell-based
[13] = system: NCI-H187; test: Cytotoxicity against human NCI-H187 cells at 178 uM by resazurin microplate assay; format: functional, cell-based
[14] = system: Vero; test: Cytotoxicity against african green monkey Vero cells at 178 uM by Green fluorescent protein microplate assay; format: cell-based; conditions: chlorocebus sabaeus
[15] = system: MCF7; test: Cytotoxicity against human MCF7 cells by resazurin microplate assay; format: functional, cell-based

`CCCCCCCCCC[C@@H](C)[C@@H]1CC(=O)N[C@H]([C@@H](C)O)C(=O)N[C@@H](C)C(=O)N[C@H](C)C(=O)N[C@@H](CCC(N)=O)C(=O)N[C@H](Cc2ccc(O)cc2)C(=O)N[C@@H]([C@@H](C)CC)C(=O)O1` showed an MIC [1] of 1 µg/mL (≈ 1.13 µM), an MIC [2] of 1 µg/mL (≈ 1.13 µM) and an MIC [3] of 1 µg/mL (≈ 1.13 µM).

`CCCCCCCCCC1CCCC(=O)N[C@H]([C@@H](C)O)C(=O)N[C@@H](C)C(=O)N[C@@H](C)C(=O)N[C@@H](CCC(N)=O)C(=O)N[C@@H](Cc2ccc(O)cc2)C(=O)N[C@@H](C(C)C)C(=O)O1` (stereo partly specified) [CORDYCOMMUNIN] was tested, and the MIC [4] was 15 µM (≈ 12.9 µg/mL), the MIC [5] was “inactive” and the MIC [6] was “inactive”. The MIC [7] was “inactive”, the IC50 [8] was 45 µM and the Activity [9] was “inactive”. The Activity [10] was “inactive” and the Activity [11] was “Not Active”.

In the case of `CCC[C@H](O)C[C@@H]1Cc2cc(OC)cc(OC)c2C(=O)O1`, the Activity [4] is reported as “inactive”, the MIC [5] is reported as “inactive” and the MIC [6] is reported as “inactive”. The MIC [7] was “inactive”, the IC50 [8] was 45 µM and the Activity [9] was “inactive”. For the same compound, the Activity [10] was “inactive”, the Activity [11] was “Not Active” and the Activity [12] was “inactive”. The Activity [13] was “inactive”, the Activity [14] was “Not Active” and the Activity [15] was “inactive”.

In the case of `CCC[C@H](O)C[C@@H]1Cc2cc(OC)cc(O)c2C(=O)O1`, the IC50 [9] is reported as 62 µM, the Activity [12] is reported as “inactive” and the Activity [13] is reported as “inactive”. The Activity [14] was “Not Active” and the IC50 [15] was 62 µM.

`CCCCCCCCCC[C@@H](C)[C@@H]1CC(=O)N[C@H]([C@@H](C)O)C(=O)N[C@@H](C)C(=O)N[C@H](C)C(=O)N[C@@H](CCC(N)=O)C(=O)N[C@H](Cc2ccc(O)cc2)C(=O)N[C@@H](C(C)C)C(=O)O1` [WA 493 A] showed an MIC [1] of 1 µg/mL (≈ 1.14 µM), an MIC [2] of 1 µg/mL (≈ 1.14 µM) and an MIC [3] of 1 µg/mL (≈ 1.14 µM).

— ChEMBL document CHEMBL1154844, “An antimycobacterial cyclodepsipeptide from the entomopathogenic fungus Ophiocordyceps communis BCC 16475” (J Nat Prod, 2010)
